Data on 13 molecules can be found in PubChem BioAssay (NCI).

Test systems include RXF 393 renal; NCI/ADR-RES ovarian; ACHN renal; NCI-H226 lung; HT29 colon; UACC-62 melanoma; OVCAR-4 ovarian; TK-10 renal; UACC-257 melanoma; UO-31 renal; MALME-3M melanoma.
Common to all, as to experiment: NCI-60 cell line screen, 48 h

Each structure is given as a SMILES string. “And” between values parts separate entries of the source, which are not always exact repeats. Equal values may be shown once.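 In this assay, cells in 96-well plates receive the compound at five concentrations for 48 hours. Endpoints are linearly interpolated between the surrounding concentrations. The concentration for 50% growth inhibition is given as GI50. TGI: total growth inhibition.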 Some results are limits rather than exact numbers.

On to `CCCCCCCCCCCCCCNC(=O)CCC(NC(=O)c1ccc(N(C)Cc2cnc3nc(N)nc(N)c3n2)cc1)C(=O)NCCCCCCCCCCCCCC` (stereo not drawn), for which the TGI in the experiment on RXF 393 renal is 34.2 µM; with NCI/ADR-RES ovarian, greater than 100 µM; in the experiment with ACHN renal, 30.1 µM; with NCI-H226 lung, greater than 100 µM; in the experiment with HT29 colon, 27 µM; in the experiment on UACC-62 melanoma it was 22.2 µM. Also, the TGI in the experiment with OVCAR-4 ovarian was 40.9 µM; in the experiment with TK-10 renal, greater than 86.2 µM; in the experiment with UACC-257 melanoma, 35.4 µM; in the experiment on UO-31 renal, 53.6 µM.
With `O=C(N/N=C(/COc1ccc(Cl)cc1)N=Cc1ccncc1)c1ccncc1`, the TGI with RXF 393 renal, in the experiment with NCI/ADR-RES ovarian, with ACHN renal, in the experiment on NCI-H226 lung, with MALME-3M melanoma and in the experiment with HT29 colon was greater than 100 µM each time. The TGI with UACC-62 melanoma, with OVCAR-4 ovarian, in the experiment on TK-10 renal and in the experiment with UACC-257 melanoma was greater than 100 µM in each case.
Regarding `O=C1CCCSC(=O)N1Cc1ccccc1`, the TGI in the experiment on RXF 393 renal, in the experiment with NCI/ADR-RES ovarian, with ACHN renal, in the experiment with NCI-H226 lung, with MALME-3M melanoma and in the experiment on HT29 colon was greater than 100 µM throughout. Further, the TGI in the experiment on UACC-62 melanoma, in the experiment on OVCAR-4 ovarian, with TK-10 renal and in the experiment on UACC-257 melanoma was greater than 100 µM in each case.
For the molecule `N#CC1(C#N)N[C@@H](c2ccsc2)[C@H]2C(=O)N(c3ccccc3)C(=O)[C@H]21`, the TGI in the experiment with RXF 393 renal, in the experiment on NCI/ADR-RES ovarian, in the experiment with ACHN renal, in the experiment on NCI-H226 lung, in the experiment on MALME-3M melanoma and in the experiment with HT29 colon was greater than 100 µM in each case. Also, the TGI in the experiment on UACC-62 melanoma, with TK-10 renal, in the experiment on UACC-257 melanoma and in the experiment on UO-31 renal was greater than 100 µM each time.
Consider `CC(=O)OC1CC(OC2C(O)CC(OC3C(O)CC(OC4CCC5(C)C(CCC6C5CC(O)C5(C)C(C7=CC(=O)OC7)CCC65O)C4)OC3C)OC2C)OC(C)C1OC1OC(CO)C(O)C(O)C1O` (stereo not drawn), for which the TGI worked out at 0.122 µM in the experiment on NCI/ADR-RES ovarian; 0.146 µM in the experiment on ACHN renal; 0.606 µM in the experiment with NCI-H226 lung; 0.249 µM with MALME-3M melanoma; 0.252 µM with HT29 colon; 0.404 µM in the experiment with UACC-62 melanoma. For the same molecule, the TGI came to 0.207 µM with OVCAR-4 ovarian, 0.235 µM with TK-10 renal, 0.767 µM in the experiment with UACC-257 melanoma and 0.179 µM with UO-31 renal.
With `COc1ccc2c(c1)/C(=C/CCN(C)C)c1ccccc1S2`, the TGI with RXF 393 renal, in the experiment on NCI/ADR-RES ovarian, in the experiment on ACHN renal, with NCI-H226 lung, in the experiment with HT29 colon and in the experiment on TK-10 renal was greater than 100 µM in each case. Besides, the values for the TGI with UACC-257 melanoma and in the experiment with UO-31 renal were greater than 100 µM and 88.6 µM, respectively.
With `Cc1ccc(N=NC(=Nc2ccccc2)c2ccc(N(CCC#N)CCC#N)cc2)cc1`, the TGI was 80.1 µM with RXF 393 renal; greater than 100 µM in the experiment on NCI/ADR-RES ovarian; greater than 100 µM in the experiment with ACHN renal; greater than 100 µM in the experiment with NCI-H226 lung; greater than 100 µM in the experiment with HT29 colon; 58.9 µM in the experiment on UACC-62 melanoma. The TGI in the experiment with OVCAR-4 ovarian was greater than 100 µM; in the experiment on TK-10 renal it was 74.9 µM; with UACC-257 melanoma it was 54 µM; with UO-31 renal it was greater than 100 µM.
For `COc1cc2c(c(OC)c1OC)C(=O)[C@@H]1[C@H]2N1C(N)=O`, the TGI in the experiment with RXF 393 renal, with NCI/ADR-RES ovarian, in the experiment on ACHN renal, with NCI-H226 lung, in the experiment with MALME-3M melanoma and in the experiment on HT29 colon was greater than 100 µM in each case. Further, the TGI with UACC-62 melanoma was 68.2 µM; with TK-10 renal, greater than 100 µM; in the experiment on UACC-257 melanoma it was greater than 100 µM; in the experiment on UO-31 renal, greater than 100 µM.
In the case of `COc1cc(Br)cc2cc(-c3cn4ccsc4n3)c(=O)oc12`, the TGI was 75.7 µM in the experiment on RXF 393 renal; greater than 100 µM in the experiment on NCI/ADR-RES ovarian; greater than 100 µM in the experiment on ACHN renal; greater than 100 µM in the experiment on MALME-3M melanoma; greater than 100 µM in the experiment on HT29 colon; 75.9 µM in the experiment on UACC-62 melanoma. For the same molecule, the TGI with OVCAR-4 ovarian, in the experiment with TK-10 renal, in the experiment on UACC-257 melanoma and in the experiment on UO-31 renal was greater than 100 µM throughout.
As for `O=C(NC(=O)c1ccccc1[N+](=O)[O-])Nc1ccc(Oc2ncc(Br)cn2)c(Cl)c1`, the TGI was 0.0321 µM with RXF 393 renal; 0.0589 µM in the experiment on NCI/ADR-RES ovarian; 0.0688 µM in the experiment with ACHN renal; 0.0292 µM and < 0.0313 µM in the experiment on NCI-H226 lung; 0.0537 µM in the experiment on MALME-3M melanoma; 0.0568 µM in the experiment on HT29 colon. In the experiment on UACC-257 melanoma, this molecule returned a TGI of 0.0434 µM. The GI50 in the experiment on NCI-H226 lung is less than 0.0175 µM; in the experiment with OVCAR-4 ovarian it was 7.58 µM; in the experiment with TK-10 renal, 10.5 µM.
In the case of `NC(=O)NCCCC(NC(=O)OCCCCn1ccc(=O)[nH]c1=O)C(=O)O` (stereo not drawn), the TGI with RXF 393 renal, in the experiment with NCI/ADR-RES ovarian, in the experiment with ACHN renal, in the experiment with NCI-H226 lung, with HT29 colon and in the experiment with UACC-62 melanoma was greater than 100 µM each time. The TGI with OVCAR-4 ovarian, in the experiment with TK-10 renal, with UACC-257 melanoma and in the experiment on UO-31 renal was greater than 100 µM in each case.
In the case of `O=C1CCCc2cc3c(cc21)CC1(Cc2ccccc2C1)C3`, the TGI with RXF 393 renal was 82.5 µM; in the experiment with NCI/ADR-RES ovarian it was greater than 100 µM; with ACHN renal, 32.9 µM; in the experiment with NCI-H226 lung, 12.8 µM; in the experiment with MALME-3M melanoma it was 70.1 µM; with HT29 colon, 8.6 µM. In addition, the TGI is greater than 100 µM with UACC-62 melanoma, 63.9 µM with OVCAR-4 ovarian, greater than 100 µM with TK-10 renal and 20.2 µM in the experiment on UACC-257 melanoma.
For the molecule `COc1cc(C(=O)N(C(=S)OCc2ccccn2)c2ccccc2)cc(OC)c1OC`, the TGI in the experiment on RXF 393 renal was greater than 100 µM; in the experiment on NCI/ADR-RES ovarian it was greater than 100 µM; in the experiment on ACHN renal it was greater than 100 µM; in the experiment on NCI-H226 lung, greater than 100 µM; in the experiment on MALME-3M melanoma, 62 µM; in the experiment with HT29 colon, greater than 100 µM. Further, the TGI with UACC-62 melanoma is greater than 100 µM; in the experiment on TK-10 renal it was greater than 100 µM; in the experiment with UACC-257 melanoma it was greater than 100 µM; with UO-31 renal it was 86.5 µM.
